Columns and labels:
[1] = test system: TNF alpha release from human PBMCs; assay: Inhibition of TNF alpha release from human PBMCs; type: cell-based; conditions: PBMC, LPS 1 μg/ml, 18 hours, AlphaLISA
Experimental: PBMC were isolated from fresh buffy coats by density centrifugation using lymphoprep (Medinor AB, cat no 1019818) tubes. Isolated PBMCs were washed in assay medium (RPMI1640 with 25 mM HEPES, 1% pen/strep, 200 mM L glutamine and 10% Foetal calf serum). Surplus PBMCs were frozen in medium containing extra 10% foetal calf serum and 5% DMSO. On the assay day, fresh cells or cryopreserved cells after thawing were washed in serum free medium (RPMI1640 with 25 mM HEPES, 1% pen/strep, 200 mM L glutamine and 0.5% human serum albumin) and counted, in order to determine the fraction of living cells (generally >95%).
Test compounds were diluted in DMSO over seven orders of magnitude, further diluted in serum-free medium and distributed into wells of 384 well tissue culture plates. LPS was added to a final concentration of 1 μg/ml to the cells. Immediately thereafter titrated test compounds were added and incubated for 18 hours at 37° C.
The level of TNF-a in the culture supernatant was quantitated by AlphaLISA (Perkin Elmer). 2-(3,5-dichloro-4-pyridinyl)-1-(7-methoxyspiro[1,3-benzodioxole-2,1′-cyclopentan]-4-yl)-ethanone (CAS 185406-34-2) at 100×IC50 was used to define the assay window.
Data were processed by sigmoidal curve fitting. EC50 and Emax were determined from the curve fits.

[2] = Human liver microsomes (HLM) assay; type: in vitro ADME; conditions: hepatic extraction ratio; 0.5 μM compound, 0.5 mg/mL microsomes, NADPH, 37° C.
Experimental: Incubations of test compounds in DMSO, diluted with phosphate buffer, pH 7.4, at 0.5 μM were carried out with human liver microsomes (0.5 mg/mL). The percentage of organic solvent in the incubations was 1%. The human liver microsomal suspension in phosphate buffer was mixed with NADPH (1 mM) and preheated to 37° C. before test compound was added. Aliquots were taken at 0, 5, 10, 20 and 30 minutes, and reactions were terminated by addition of methanol containing analytical internal standard (IS).
The results were expressed as apparent clearance (Clapp) (mL/min/kg) and hepatic extraction ratio (Eh) (%) calculated from the rate constant (k) (min^−1) of test compound depletion.

[3] = molecular target: T1, glucocorticoid receptor (GR), recombinant full-length receptor protein (Homo sapiens, UniProt P04150); assay: Glucocorticoid receptor binding assay (fluorescence polarization kit); conditions: 4 nM receptor, 2.5 nM Fluormone GS1 tracer, 2h room temperature, read-out: GR binding ABS IC50
T1 construct: 4 nM recombinant, full-length receptor protein was incubated with increasing concentrations of GR ligand; purchased Life Technologies A-15897
T1 sequence (P04150 1-777): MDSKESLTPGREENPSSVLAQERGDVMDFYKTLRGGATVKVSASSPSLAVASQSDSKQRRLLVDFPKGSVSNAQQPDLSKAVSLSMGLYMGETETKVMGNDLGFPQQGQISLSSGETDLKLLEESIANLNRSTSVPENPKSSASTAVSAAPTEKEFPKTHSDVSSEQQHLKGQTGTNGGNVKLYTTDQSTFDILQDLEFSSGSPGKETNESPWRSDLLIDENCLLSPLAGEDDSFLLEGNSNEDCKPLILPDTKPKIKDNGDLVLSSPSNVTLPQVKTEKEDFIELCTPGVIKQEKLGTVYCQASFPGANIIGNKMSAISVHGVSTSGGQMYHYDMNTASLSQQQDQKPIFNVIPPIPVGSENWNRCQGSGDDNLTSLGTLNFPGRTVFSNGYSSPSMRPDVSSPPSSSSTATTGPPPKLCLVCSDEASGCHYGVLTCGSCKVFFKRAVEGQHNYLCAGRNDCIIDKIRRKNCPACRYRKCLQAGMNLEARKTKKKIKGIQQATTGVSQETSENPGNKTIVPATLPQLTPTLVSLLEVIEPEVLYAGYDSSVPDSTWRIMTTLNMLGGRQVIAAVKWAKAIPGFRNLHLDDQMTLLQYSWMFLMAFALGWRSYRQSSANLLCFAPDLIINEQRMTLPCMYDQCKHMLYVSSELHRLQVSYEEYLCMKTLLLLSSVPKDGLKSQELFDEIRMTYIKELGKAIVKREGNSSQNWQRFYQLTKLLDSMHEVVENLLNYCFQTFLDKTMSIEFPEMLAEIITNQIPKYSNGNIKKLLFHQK
Experimental: Test compounds were diluted in DMSO over seven orders of magnitude, further diluted in assay buffer and distributed into 384-well plates. The sensitivity limit of this assay was 2-4 nM.
Data were processed by sigmoidal curve fitting.
Absolute (Abs) IC50 and Emax were determined from the curve fits.

IC50 [3] [µM] | SMILES | EC50 [1] [µM] | HLM assay Eh (%) [2]
 | Cc1ccc([C@@H](Oc2ccc(C(=O)N[C@H]3CCCN(C(=O)[C@H]4COC(=O)C4)C3)nc2)[C@H](C)NC(=O)C(F)(F)F)cc1 [Compound 1, N-[(3S)-1-[(3R)-5-oxotetrahydrofuran-3-carbonyl]-3-piperidyl]-5-[(1R,2S)-1-(p-tolyl)-2-[(2,2,2-trifluoroacetyl)amino]propoxy]pyridine-2-carboxamide] | < 0.1 | * (extraction ratio (Eh)>90%)
< 0.1 | C[C@H](NC(=O)C(F)(F)F)[C@H](Oc1ccc(C(=O)N[C@H]2CCCN(C(=O)[C@H]3COC(=O)C3)C2)nc1)c1ccc(C2CC2)cc1 [Compound 2, 5-[(1R,2S)-1-(4-cyclopropylphenyl)-2-[(2,2,2-trifluoroacetyl)amino]propoxy]-N-[(3S)-1-[(3R)-5-oxotetrahydrofuran-3-carbonyl]-3-piperidyl]pyridine-2-carboxamide] | < 0.1 | * (extraction ratio (Eh)>90%)
 | Cc1ccc([C@@H](Oc2ccc(C(=O)N[C@@H]3CCCN(C(=O)[C@H]4COC(=O)C4)C3)nc2)[C@H](C)NC(=O)C(F)(F)F)cc1 [Compound 59, N-[(3R)-1-[(3R)-5-oxotetrahydrofuran-3-carbonyl]-3-piperidyl]-5-[(1R,2S)-1-(p-tolyl)-2-[(2,2,2-trifluoroacetyl)amino]propoxy]pyridine-2-carboxamide] | < 0.1 | ** (50%<extraction ratio (Eh)<90%)
< 0.1 | Cc1ccc([C@@H](Oc2ccc(C(=O)N[C@H]3CCCN(C(=O)N[C@H]4COC(=O)C4)C3)nc2)[C@H](C)NC(=O)C(F)(F)F)cc1 [Compound 72, N-[(3S)-1-[[(3R)-5-oxotetrahydrofuran-3-yl]carbamoyl]-3-piperidyl]-5-[(1R,2S)-1-(p-tolyl)-2-[(2,2,2-trifluoroacetyl)amino]propoxy]pyridine-2-carboxamide] | 0.1 to 0.3 | 
< 0.1 | Cc1ccc([C@@H](Oc2ccc(C(=O)N[C@H]3CCCN(C(=O)O[C@@H]4CCOC4=O)C3)nc2)[C@H](C)NC(=O)C(F)(F)F)cc1 [Compound 74, [(3R)-2-oxotetrahydrofuran-3-yl] (3S)-3-[[5-[(1R,2S)-1-(p-tolyl)-2-[(2,2,2-trifluoroacetyl)amino]propoxy]pyridine-2-carbonyl]amino]piperidine-1-carboxylate] | < 0.1 | 
< 0.1 | Cc1ccc([C@@H](Oc2ccc(C(=O)N[C@H]3CCCN(C(=O)O[C@@H]4COC(=O)C4)C3)nc2)[C@H](C)NC(=O)C(F)(F)F)cc1 [Compound 75, [(3S)-5-oxotetrahydrofuran-3-yl] (3S)-3-[[5-[(1R,2S)-1-(p-tolyl)-2-[(2,2,2-trifluoroacetyl)amino]propoxy]pyridine-2-carbonyl]amino]piperidine-1-carboxylate] | 0.1 to 0.3 | 
< 0.1 | Cc1ccc([C@@H](Oc2ccc(C(=O)N[C@H]3CCCN(C(=O)O[C@H]4COC(=O)C4)C3)nc2)[C@H](C)NC(=O)C(F)(F)F)cc1 [Compound 76, [(34)-5-oxotetrahydrofuran-3-yl] (3S)-3-[[5-[(1R,2S)-1-(p-tolyl)-2-[(2,2,2-trifluoroacetyl)amino]propoxy]pyridine-2-carbonyl]amino]piperidine-1-carboxylate] | 0.1 to 0.3 | 
< 0.1 | C[C@H](NC(=O)[C@H]1CCCO1)[C@H](Oc1ccc(C(=O)O[C@H]2CCCN(C(=O)[C@@H]3COC(=O)C3)C2)cc1)c1ccc(C2CC2)cc1 [Compound 77, [(3S)-1-[(3S)-5-oxotetrahydrofuran-3-carbonyl]-3-piperidyl] 4-[(1R,2S)-1-(4-cyclopropylphenyl)-2-[[(2R)-tetrahydrofuran-2-carbonyl]amino]propoxy]benzoate] | < 0.1 | 
< 0.1 | C[C@H](NC(=O)[C@@H]1CCCO1)[C@H](Oc1ccc(C(=O)O[C@H]2CCCN(C(=O)[C@H]3COC(=O)C3)C2)cc1)c1ccc(C2CC2)cc1 [Compound 78, [(3S)-1-[(3R)-5-oxotetrahydrofuran-3-carbonyl]-3-piperidyl] 4-[(1R,2S)-1-(4-cyclopropylphenyl)-2-[[(2S)-tetra hydrofuran-2-carbonyl]amino]propoxy]benzoate] | < 0.1 | 

Reference: patent US10494363B2, “Non-steroidal glucocorticoid receptor modulators for local drug delivery” (LEO PHARMA A/S, priority 2015, dated 2019)
